Patent US20240409543A1, “PYRROLOPYRAZOLE SPIRO COMPOUND” (CHIA TAI TIANQING PHARMACEUTICAL GROUP CO., LTD., priority 2021, published 2024)
pIC50: −log10 of the molar value.

Key:
SHP2 = target: T1, SHP2 (Homo sapiens, UniProt Q06124); experiment: SHP2 in-vitro enzymology experiment (Homogeneous Full Length SHP-2 Assay Kit, DiFMUP substrate); assay type: biochemical; conditions: 60 min pre-incubation, 30 min reaction at 25° C.
T1 construct: Homogeneous Full Length SHP-2 Assay Kit (purchased from BPS Bioscience); purchased BPS Bioscience
T1 sequence (Q06124 1-593): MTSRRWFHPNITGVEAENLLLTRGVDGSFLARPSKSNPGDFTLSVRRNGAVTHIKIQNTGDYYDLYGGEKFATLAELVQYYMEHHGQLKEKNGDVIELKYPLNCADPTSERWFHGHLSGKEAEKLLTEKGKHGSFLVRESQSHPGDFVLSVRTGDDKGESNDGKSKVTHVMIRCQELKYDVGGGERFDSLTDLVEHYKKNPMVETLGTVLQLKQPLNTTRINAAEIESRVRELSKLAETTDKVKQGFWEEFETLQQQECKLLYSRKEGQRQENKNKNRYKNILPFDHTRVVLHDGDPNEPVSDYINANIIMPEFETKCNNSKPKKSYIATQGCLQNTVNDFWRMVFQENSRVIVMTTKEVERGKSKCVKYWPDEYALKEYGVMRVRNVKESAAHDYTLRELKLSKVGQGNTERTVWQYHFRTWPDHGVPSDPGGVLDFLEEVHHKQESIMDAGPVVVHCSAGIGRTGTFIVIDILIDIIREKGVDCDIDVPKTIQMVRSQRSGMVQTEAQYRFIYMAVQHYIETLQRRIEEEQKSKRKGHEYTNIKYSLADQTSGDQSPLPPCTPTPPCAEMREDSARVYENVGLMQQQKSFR
Protocol: Experimental materials: Homogeneous Full Length SHP-2 Assay Kit (purchased from BPS Bioscience) and NIVO multimode microplate reader.
Preparation of 1× buffer (ready-to-use): 5× buffer was diluted with deionized water to give 1× buffer, which was then placed on ice for later use.
Each test compound was diluted with 100% DMSO to 100 μM as the first concentration, and then diluted in a 4-fold gradient to the 8th concentration (i.e., from 100 μM to 6.1 nM) using a multi-channel pipette. Each gradient of the test compound was diluted with 1× buffer to prepare a working solution with 10% DMSO. The resulting solution was then added to the corresponding wells of a plate at 5 μL/well, with duplicate wells set up. The plate was then centrifuged at 1000 rpm for 1 min.
18 μL of a prepared reaction mixed solution (containing 12.25 μL of deionized water, 5 μL of 5× buffer; 0.25 μL of SHP-2 substrate polypeptide (100 μM), and 0.5 μL of DTT (250 mM)) was added to each well. The plate was then centrifuged at 1000 rpm for 1 min.
An SHP-2 enzyme was diluted to 0.1 ng/μL with 1× buffer. The resulting solution was added to the corresponding wells at 2 μL/well, and 2 μL of 1× buffer and […] were added to each negative control well. This step was performed on ice. The reaction system was then incubated at 25° C. for 60 min for compound pre-incubation.
After the compound pre-incubation was completed, 25 μL of a substrate working solution (containing 19.45 μL of deionized water, 5 μL of 5× buffer; 0.5 μL of DTT (250 mM), and 0.05 μL of SHP-2 Substrate (DiFMUP) (10 mM)) was added to each well, and the reaction system was allowed to react at 25° C. for 30 min. At that time, the final concentration gradient of the compound ranged from 1 μM to 0.061 nM. After the reaction was completed, the fluorescence values were read using the NIVO multimode microplate reader, with an excitation wavelength of 360 nm and an emission wavelength of 460 nm.
Detection of compound background reading values: Each gradient of the test compound diluted with 100% DMSO was added to a new compound plate at 5 μL/well, and then 1× buffer was added at 45 μL/well to achieve a 10-fold dilution to prepare a working solution with 10% DMSO. Next, the compound working solution was added to the detection plate at 5 μL/well, and then 1× buffer was added at 45 μL/well to achieve another 10-fold dilution, bringing the final concentration of DMSO to 1%. The plate was then centrifuged at 1000 rpm for 1 min. The fluorescence values were read using the multimode microplate reader, with an excitation wavelength of 360 nm and an emission wavelength of 460 nm.
The original data were converted to inhibition rates and the IC50 values were obtained by curve fitting using a four-parameter method.

[1] = tested on: MiaPaCa-2 cells (MIAPACA2_PANCREAS); experiment: Anti-proliferation experiment on tumor cells with KRAS mutations, MiaPaCa-2 (3D CellTiter-Glo); assay type: cell-based; conditions: Homo sapiens, MIA PaCa-2, 72 h, 3 days incubation with compound, ultra-low attachment plate
Excerpt: (§1) Cell culture medium, penicillin/streptomycin antibiotics purchased from Wisent, and fetal bovine serum purchased from Biosera; 3D CellTiter-Glo (chemiluminescence detection reagent for cell viability) reagent purchased from Promega; Cell lines purchased from Nanjing Cobioer Biosciences Co., Ltd. and Wuhan Procell Life Science & Technology Co., Ltd; and Envision multimode microplate reader (PerkinElmer).
(§2) Different types of tumor cells were each seeded in an ultra-low attachment 96-well U-bottom plate, with 80 μL of cell suspension per well. The cell plate was incubated in a CO2 incubator overnight.
(§3) Each test compound was diluted in a 5-fold gradient to the 9th concentration (i.e., from 2 mM to 5.12 nM or from 200 μM to 0.512 nM) using a multi-channel pipette, with duplicate wells set up. 78 μL of medium was added to an intermediate plate, and the serially diluted compound was transferred to the corresponding wells of the intermediate plate at 2 μL/well. The mixture was mixed well and then transferred to the cell plate at 20 µL/well. The concentration of the compound transferred to the cell plate ranged from 10 μM to 0.0256 nM or from 1 μM to 0.00256 nM. The cell plate was then incubated in a CO2 incubator for 3-6 days.
(§4) The chemiluminescence detection reagent for cell viability was added to the cell plate at 100 μL/well, and the luminescence signals were stabilized by incubation for 10 min at room temperature. Readings were taken using the multimode microplate reader.
(§5) The original data were converted to inhibition rates and then the IC50 values were obtained by curve fitting using a four-parameter method (obtained from the “log(inhibitor) vs. response—Variable slope” model in GraphPad Prism). Table 2 illustrates the inhibitory activity of the compounds disclosed herein against the proliferation of different types of tumor cells.

[2] = tested on: H358 cells (NCIH358_LUNG); experiment: Anti-proliferation experiment on tumor cells with KRAS mutations, H358 (3D CellTiter-Glo); assay type: cell-based; conditions: Homo sapiens, NCI-H358, 120 h, 5 days incubation with compound, ultra-low attachment plate
Excerpt: as §1, §2, §3, §4, §5

[3] = tested on: ERK phosphorylation in H358 cells; experiment: Inhibitory activity against ERK phosphorylation in H358 cells (HTRF Phospho-ERK1/2 kit); assay type: cell-based; conditions: Homo sapiens, NCI-H358; starved H358 cells, 1 h compound incubation; read-out: H358 cell ERK phosphorylation IC50
Protocol: H358 cells purchased from Nanjing Cobioer Biosciences Co., Ltd., 1640 medium purchased from Biological industries, fetal bovine serum purchased from Biosera, and Advanced Phospho-ERK1/2 (THR202/TYR204) KIT purchased from Cisbio.
• 1. H358 cells were plated in a transparent 96-well cell culture plate, with 80 μL of cell suspension per well, each well containing 10000 H358 cells. The cell plate was incubated in a CO2 incubator at 37° C. overnight. • 2. The cell supernatant was discarded, and a starvation medium (1640+0.02% fetal bovine serum+1% […]) was added at 80 μL/well. The cell plate was then incubated in a CO2 incubator for cell starvation treatment overnight; • 3. Each test compound was diluted with 100% DMSO to 4 mM as the first concentration, and then diluted in a 5-fold gradient to the 8th concentration (i.e., from 4 mM to […]) using a pipette. 1 μL of the compound was then added to 79 μL of cell starvation medium. The mixture was mixed well, and then the compound solution was added to the corresponding wells of the cell plate at 20 μL/well. The cell plate was then put back to the CO2 incubator for incubation for another 1 h. At that time, the concentration of the compound ranged from 10 μM to 0.0256 nM, with the concentration of DMSO being 0.25%. • 4. After the incubation was completed, the cell supernatant was discarded, and a cell lysis buffer was added at 50 μL/well. The plate was then incubated with shaking at room temperature for 30 min. 5. The Phospho-ERK1/2 Eu Cryptate antibody and Phospho-ERK1/2 d2 antibody were diluted in a 20-fold gradient with the Detection buffer. • 6. 16 μL of the cell lysate supernatant from each well was transferred to a new 384-well white microplate, and then 2 μL of the Phospho-ERK1/2 Eu Cryptate antibody dilution and 2 μL of the Phospho-ERK1/2 d2 antibody dilution were added to each well. The mixture was incubated at room temperature for 4 h. • 7. After the incubation was completed, HTRF values were read using a multimode microplate reader, with an excitation wavelength of 320 nm and emission wavelengths of 615 nm and 665 nm.
The original data were converted to inhibition rates and then the IC50 values were obtained by curve fitting using a four-parameter method.

Structure (SMILES) | pIC50 (SHP2) | pIC50 [1] | pIC50 [2] | pIC50 [3]
CONc1nccc(Sc2nc(CO)c(N3CCC4(CC3)Cn3nccc3C4N)nc2C)c1Cl (stereo not drawn) [Compound 8] | 8.40 |  |  | 
Cc1nc(N2CCC3(CC2)Cn2nccc2C3N)c(CO)nc1Sc1cccc(Cl)c1Cl (stereo not drawn) [Compound 3] | 8.64 | 7.46 | 7.21 | 7.25
Cc1nc(Sc2ccnc(N)c2Cl)cnc1N1CCC2(CC1)Cn1nccc1C2N (stereo not drawn) [Compound 10] | 8.96 | 7.71 | 7.41 | 
Cc1nc(N2CCC3(CC2)Cn2nccc2C3N)c(C(N)=O)nc1Sc1ccnc(N)c1Cl (stereo not drawn) [Compound 5] | 8.49 | 7.31 | 7.37 | 7.34
